Experimental findings from US20240390404A1, “ANTI-HUMAN NOROVIRUS AGENT” (KEIO UNIVERSITY, priority 2018, published 2024) are described below.

In data set [1] the test system is fucose-modified proteins including HBGA on the surface of 2D organoid. The data set can be described thus: HBGA / fucose-modified protein expression on the surface of 2D organoid (binding of FITC-labeled UEA-1). The settings on record: 2fp-fucose 0, 8, 40, 200, 1,000 μM, 4 continuous days. In kind it is cell-based, human. As for the experimental part: The 2D organoid was subjected to a 2fp-fucose treatment (0, 8, 40, 200, and 1,000 μM) for 4 continuous days. Reduction of fucose-modified proteins including HBGA formed on the cell surfaces was investigated by checking binding of FITC (phosphor)-labeled UEA-1 (ulex europaeus agglutinin-1).

A further data set relates to VLP of norovirus GII. 4. As to the kind of experiment: Binding of AF488-labeled VLPs of norovirus GII.4 to the surface of 2fp-fucose-treated 2D organoid. In kind it is cell-based, human norovirus. Conditions: 2fp-fucose 0, 8, 40, 200, 1,000 μM, 4 treatment days. As for the experimental part:
In the Example, a nucleotide sequence (AB447456) encoding a structural protein domain of norovirus GII. 4 was incorporated into a baculovirus, and the sequence was expressed in insect cells (SF9 cells). The expression product was used in the Example.
Separately, VLPs of norovirus GII. 4 were labeled with AF488 (Alexa Fluor 488; green phosphor) and purified. The thus-prepared labeled VLPs were added to the 2fp-fucose-treated 2D organoid, and a state of binding of VLPs to the surface of the 2fp-fucose-treated 2D organoid was observed. Similar to the case of UEA-1, the 2fp-fucose concentration in the treatment was 0, 8, 40, 200, and 1,00 0 μM (for 4 treatment days). […] When the 2fp-fucose concentration exceeded 40 μM, definite reduction in VLP adsorption on the surface of 2D organoid was observed (FIG. 3(b)). FIG. 3(b) includes monochrome photographic images.

In data set [2] the test system is human norovirus GII.3 (TCH2004 strain). As to the kind of experiment: Human norovirus proliferation inhibition in 2D organoid after 2fp-fucose treatment, GII.3 strain. In kind it is cell-based. The settings on record: 3 days treatment before infection, days 3 and 6 after infection. As for the experimental part: (§1) Feces of a human norovirus-infected patent contains a large amount of infectious human norovirus. Thus, the feces of a human norovirus-infected patient is suspended in distilled water or the like to a final concentration of about 10%, to thereby prepare a “10% feces suspension.” The 10% feces suspension is about 10-fold diluted with an ENRA medium. The diluted suspension is added to each of the aforementioned wells having the 2D organoid (5 μL/well) and subjected to incubation for about 3 hours, to thereby proliferate human norovirus. As a result of verification, it has been confirmed that human norovirus proliferates to about 100,000 times the initial count through the culture system employing the 2D organoid.
In the Example, there were tested strains of human norovirus obtained from feces of human norovirus infection patients through the aforementioned procedure and stocked before the test. Specifically, three strains belonging to the genetic group 2 (GII) which accounts for 80 to 90% of the infected patients were selected as test targets. The isolated strain lineages included in GII (FIG. 1) were GII. 6 belonging to “Lineage 1,” GII. […]
The effect of 2fp-fucose treatment on proliferation of human norovirus was investigated for each lineage of norovirus. […] 4, and the viral proliferation amount was determined on days 3 and 6 after infection (FIG. 4).

Data set [3] relates to 2D organoid derived from intestinal stem cells. The data set can be described thus: Cytotoxicity of 2fp-fucose to 2D organoid (Trypan blue staining). The settings on record: 2fp-fucose 3.0 to 1,000 μM, 7 continuous days, versus no treatment (0 μM). The data set is classed as cell-based. An excerpt:
The 2D organoid derived from intestinal stem cells refers to a 2D organoid for infection and culture of human diarrhea virus (including norovirus) disclosed in Patent Document 2. According to Patent Document 2, the 2D organoid is “obtained by Step 1 in which human intestinal epithelial stem cells, human intestinal epithelial cells, or a tissue including at least one of these cells is subjected to 3-dimensional culturing on the extracellular matrix, to thereby obtain a 3D organoid; and by Step 2 in which the above-obtained 3D organoid is dispersed to prepare single cells; the single cells are subjected to monolayer culturing on an extracellular matrix; and there is obtained a 2D organoid having a single-layer structure of the epithelial cells for forming the human intestinal cavity which include differentiated trophoblastic cells and caliciform cells.” By virtue of the 2D organoid, culturing human norovirus, which was not previously achieved, can be successfully performed.
The aforementioned 3D organoid is degraded by use of, for example, TrypLE™ Express (product of Thermo Fisher SCIENTIFIC), to thereby yield single cells. […]
The 2D organoid was treated with 2fp-fucose (3.0 to 1,000 μM) for 7 continuous days. In each case, the number of dead cells was determined through Trypan blue staining. […]

In data set [4] the test system is human norovirus GII.4 (K2017 strain). The data set can be described thus: Human norovirus proliferation inhibition in 2D organoid after agent pre-treatment, GII.4 strain. In kind it is cell-based. As for the experimental part: as §1
In the Example, there were tested strains of human norovirus obtained from feces of human norovirus infection patients through the aforementioned procedure and stocked before the test. Specifically, three strains belonging to the genetic group 2 (GII) which accounts for 80 to 90% of the infected patients were selected as test targets. The isolated strain lineages included in GII (FIG. 1) were GII. 6 belonging to “Lineage 1,” GII. 3 belonging to “Lineage 2,” and GII.4 belonging to “Lineage 3” (GII. 6: K2017 strain, GII.3: TCH2004 strain, and GII. 4: K2017 strain).
The effect of 2fp-fucose treatment on proliferation of human norovirus was investigated for each lineage of norovirus. Specifically, after the 2fp-fucose treatment for 3 days, the 2D organoid was infected with each of the aforementioned norovirus strains GII.6, GII. 3, and GII. 4, and the viral proliferation amount was determined on days 3 and 6 after infection (FIG. 4).
Next, there was investigated the effect of the period of time (the number of days) of the 2fp-fucose treatment performed in advance on the anti-human norovirus action of the fucose analog. Specifically, the strain GII. 4 was treated with 2fp-fucose (several concentrations) for 1 to 4 days. […] However, in the group of 3-day treatment, the proliferation inhibition effect was observed by the 200 μM treatment with a certain range of variation in effectiveness. In the group of 4-day treatment, the proliferation inhibition effect was initially observed by 8 μM treatment, and the effect increased in a concentration-dependent manner to a 2fp-fucose concentration of 200 μM. […] Thus, the highest proliferation inhibition effect was obtained in the 2D organoid system through a 200 μM treatment for 3 to 4 days. The test was repeatedly performed three times. Error bars denote SEMs.
The 2D organoid was treated with an agent for 3 days. The tested agents were (a) 2fp-fucose (200 μM), (b) Sofosbuvir (1 μM), (c) Lamivudine (1 μM), (d) Ribavirin (400 μM), and (e) Mizoribine (100 μM). Subsequently, the thus-treated 2D organoid was infected with human norovirus (the norovirus strain GII.4), and the proliferation inhibition effect was determined (FIG. 6). The test was repeatedly performed three times. Error bars denote SEMs.

Setting [5] is: GII.4, groups of 1-day treatment and 2-day treatment with 2fp-fucose.

“Also recorded” adds a separate entry of the source. Where only a bound is given, the exact number is not on record here.

Consider `CC(=O)OC1O[C@@H](C)[C@@H](OC(C)=O)[C@@H](OC(C)=O)[C@@H]1F` (stereo partly drawn) [2fp-fucose, (3S,4R,5R,6S)-3-fluoro-6-methyltetrahydro-2H-pyran-2,4,5-triyl triacetate], for which, in data set [1], the “amount of α-link fucose including HBGA on the surface of the 2D organoid (UEA-1 binding)” value is “decrease in a concentration-dependent manner”. The “VLP binding amount on the surface of 2D organoid” value in the data set on VLP of norovirus GII. 4 is on record as “decrease in a concentration-dependent manner”. The “concentration of complete viral proliferation inhibition” value in data set [2] was no less than 40 µM. In addition, in data set [3], the “cell viability (number of dead cells, Trypan blue staining)” value is given as “no significant difference was observed in cell viability; also recorded: no effect on cell viability was confirmed”. In addition, in data set [4] (GII.4 strain, 3 days treatment before infection), the “concentration of slight viral proliferation inhibition” value came out at 40 µM. In data set [4] (GII.4 strain, 3 days treatment before infection, days 3 and 6 after infection), the “concentration of complete viral proliferation inhibition” value is no less than 200 µM. The “proliferation of human norovirus” value in data set [4] (GII.4, 4-day treatment, 1,000 μM) is given as “slight proliferation of human norovirus was observed”. Moreover, the “viral RNA titer from day 0 to day 7 (proliferation inhibition effect)” value in data set [4] (GII.4, agent 200 μM, 3 days treatment before infection) is “no substantial increase in viral RNA titer was observed”. Also, in data set [4] (GII.4, group of 3-day treatment, certain range of variation in effectiveness), the “concentration at which the proliferation inhibition effect was observed” value was found to be 200 µM. Further, the “concentration at which the proliferation inhibition effect was initially observed” value in data set [4] (GII.4, group of 4-day treatment) turned out to be 8 µM. In addition, in data set [4] (setting [5]), the proliferation inhibition effect result is listed as “no proliferation inhibition effect” and the “proliferation of human norovirus 3 days after inoculation” value is listed as no less than 100 fold. Also, in data set [4] (GII.4, treatment for 3 to 4 days), the “concentration giving the highest proliferation inhibition effect” value was 200 µM.
